# Measurements as given in PubChem BioAssay AID179 (DTP/NCI, 2004).
# Active and inactive are the calls of the source.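 How the source made its calls: active means compounds giving half or more protection of infected cells from virus-caused growth loss, again on retest; inactive means the rest.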 Where a SMILES comes first, the peptide text is derived from it. [ ]: non-standard residue; d: D form. The star is where a group is joined. ξ: configuration not given here. Boc = CC(C)(C)OC(=O)*; ξV = CC(C)C(N)C(=O)O; OBn = c1ccc(CO*)cc1
# Test system: CEM cells HIV-1 protection, formazan growth assay
# Assay: NCI AIDS Antiviral Assay
# Details: for IC50: measured here: growth of uninfected CEM cells
# How it was run: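 Soluble formazan readout of cell growth; CEM cells ± HIV-1; 5 drug concs. ≥50% protection → retest; ≥50% again = moderately active; reproducible 100% = confirmed active.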
SMILES,EC50 [µM],IC50 [µM],outcome
COc1c(O)c2c(=O)cc(OC)c3c4c(OC)cc(=O)c5c(O)c(OC)c6c(c(c1CC(C)=C6OC(C)=O)c23)c54,> 4.79,1.29,–
O=C1OCC(Cl)O1 (configuration not stated),> 200,> 200,–
O=C(Nc1cc(S(=O)(=O)O)cc2cc(S(=O)(=O)O)c(N=Nc3cc(Nc4nc(Cl)nc(Nc5ccc(S(=O)(=O)O)cc5)n4)ccc3S(=O)(=O)O)c(O)c12)c1ccccc1,–,–,inactive
Nc1nc(=O)n(C2OC(CO)CC2F)cc1F (configuration not stated),55,575,–
Cc1ccc(NC(=O)C2C(=O)C(=O)N(c3ccc(C)cc3)C2=O)cc1 (configuration not stated),> 15.5,> 15.5,–
CC(=O)N1C(=O)CC23c4cccc([N+](=O)[O-])c4C(=O)N2CCCN13 (configuration not stated),> 398,> 398,–
CC(C)C(NC(=O)CNC(=O)OC(C)(C)C)C(=O)NCC(=O)OCc1ccccc1 (stereo not drawn) (Boc-Gly-[ξV]-Gly-OBn),> 200,> 200,–
O=C(O)[C@@H]1CSC(C(O)C(O)C(O)CO)N1 (some centres not stated),> 355,> 355,–
COc1ccc(/C=C2N=C(/C=C/c3ccccc3)OC\2=O)cc1OC,11,97.7,–
N#CCCN(CCC#N)c1ccc(/C=C2\SC(=S)NC2=O)cc1Br,> 200,> 200,–
CC(=O)OC1C[C@@]2(C)C(CC[C@@H]2C(C)=O)[C@@H]2CC=C3C[C@@H](O)CC[C@]3(C)C12 (some centres not stated),–,–,inactive
CCC(C)C(C1=C(O)c2ccccc2C(=O)C1=O)C1=C(O)c2ccccc2C(=O)C1=O (configuration not stated),> 200,87.1,–
CC12C(=O)OCC1C1CCC2C1 (configuration not stated),> 537,> 537,–
O=c1cc(NCCCCCO)[nH]c(=O)[nH]1,> 200,> 200,–
CNc1ncnc2c1ncn2C1C=CC(COS(N)(=O)=O)C1 (configuration not stated),> 200,> 200,–
CN(C)CC/C(=N\Nc1c(Cl)cccc1Cl)c1ccccc1,–,–,inactive
CC1(C)CC(=O)C2=C(C1)Nc1ccccc1NC2c1ccc([N+](=O)[O-])cc1 (configuration not stated),> 200,29.5,–
CCOC(=O)CC(NC(=O)c1[nH]cnc1/N=N/N(C)C)C(=O)OCC (configuration not stated),> 708,> 708,–
N#CC1=C(N2CCCC2)NC(=O)CC1=O,> 200,> 200,–
CCCCCC(C)[P+](c1ccccc1)(c1ccccc1)c1ccccc1 (configuration not stated),> 200,0.955,–
Cc1cc2c(C=O)[nH]nc2c(C#N)c1C,–,–,inactive
CCC(C)(CC(=O)O)CC(=O)OC[C@]12CC[C@@H](C(C)C)[C@@H]1[C@H]1CC[C@@H]3[C@@]4(C)CC[C@H](OC(=O)CC(C)(CC)CC(=O)O)C(C)(C)[C@@H]4CC[C@@]3(C)[C@]1(C)CC2 (some centres not stated),> 200,7.08,–

SMILES,EC50 [µM],IC50 [µM],outcome
CC1(C(=O)O)CCC(C(=O)O)C(C)(C)O1 (configuration not stated),> 200,> 200,–
CC(=O)O[C@H]1CC2CCCC2C2C(=O)OC(=O)C21 (some centres not stated),–,–,active
O=C(N/N=C\c1ccccc1)c1ccccc1Nc1ccccc1C(=O)N/N=C/c1ccccc1,26.9,> 200,–
O=c1[nH]nc(-c2ccccc2)n1Nc1ccccc1,> 200,> 200,–
CN1CN(c2ccccc2)C2(CCN(CCC3COc4ccccc4O3)CC2)C1=O (configuration not stated),> 200,30.9,–
CSC(=N/N=C(\C)c1ccc(S(=O)(=O)N(C)c2ccccc2)cc1)SC,> 200,14.8,–
Nc1c(N=Nc2ccc(CCc3ccc(N=Nc4cc(S(=O)(=O)O)c5cccc(S(=O)(=O)O)c5c4N)cc3S(=O)(=O)O)c(S(=O)(=O)O)c2)cc(S(=O)(=O)O)c2cccc(S(=O)(=O)O)c12,6.31,148,–
Cc1ncc2c[n+]([O-])ccn12,> 1660,> 1660,–
Cc1cc(=O)n(-c2ccccc2)c(=O)n1-c1nc2ccccc2[nH]1,> 112,64.6,–
O=C1CCCC(C(Sc2ccccc2)(Sc2ccccc2)Sc2ccccc2)C1 (configuration not stated),> 200,12,–
N/C(=N/O)c1nsnc1/C(N)=N\O,> 200,> 200,–
C=CCn1c(=O)c(C(=O)NC(=O)OCC)cn(C2CCCCC2)c1=O,> 145,> 145,–
O=C(COc1cc(=O)oc2ccccc12)c1ccccc1,> 200,151,–
CC(=O)OCC1OC(Nc2cc(=O)[nH]c(=O)[nH]2)C(OC(C)=O)C(OC(C)=O)C1OC(C)=O (configuration not stated),–,–,inactive
OC1C2CN3CCN(C2)CC1(c1ccccc1)C3 (configuration not stated),> 200,> 200,–
C=C(C)C(C(=O)OC(c1ccccc1)c1ccccc1)N1C(=O)C(NC(=O)COc2ccccc2)C1SSc1nc2ccccc2s1 (configuration not stated),> 200,8.32,–
CC(=O)C1=C(C)N2C(=NC3=C(CCc4ccccc43)C2c2ccc(F)cc2)S1 (configuration not stated),> 200,178,–
CN(/N=C/c1cccs1)c1ccc([N+](=O)[O-])cc1[N+](=O)[O-],> 200,107,–
CC12c3ccccc3C(c3ccccc31)C1C(=O)OC(=O)C12 (configuration not stated),> 135,21.4,–
O=Cc1c(O)c2ccccc2[nH]c1=O,> 5.5,> 5.5,–
CC(=O)OC1CN(OCC2OC(OC(C)=O)C(OC(C)=O)C(OC(C)=O)C2OC(C)=O)CC(OC(C)=O)C1OC(C)=O (configuration not stated),> 200,> 200,–
CC(C)(C)NC(=O)CCC(CC(=O)NC(C)(C)C)S(=O)(=O)O (configuration not stated),> 200,> 200,–

SMILES,EC50 [µM],IC50 [µM],outcome
COC(=O)c1cc(-c2c[nH]cc2C(=O)OCc2ccccc2)cn1S(=O)(=O)c1ccc(C)cc1,> 200,17.8,–
CC(C)(C)OC(=O)NC(Cc1ccccc1)/C(O)=C(\C#N)c1ccc([N+](=O)[O-])cc1 (configuration not stated),> 200,83.2,–
O=C(O)c1ccccc1C(=O)Nc1ccc(S(=O)(=O)Nc2nccs2)cc1,> 200,> 200,–
CN1CCN(C(=O)/N=N\C(=O)N2CCN(C)CC2)CC1,> 200,> 200,–
O=C(Nc1ccccc1)c1cc(S(=O)(=O)Nc2nc3ncccc3[nH]2)c(SSc2cc(Cl)c(C(=O)Nc3ccccc3)cc2S(=O)(=O)Nc2nc3ncccc3[nH]2)cc1Cl,112,> 200,–
CCN1C(=O)C(=O)C(CC)(CC)C1=O,> 200,> 200,–
O=C(O)c1cc2ccc(Cl)cc2c(O)c1C1=CCCCC1,> 166,33.9,–
CN(C)c1ccc(-c2cc(C(=O)O)c3c(ccc4ccccc43)n2)cc1,> 20.9,> 20.9,–
CC12CC[C@H](O)C(C)(C)[C@H]1CC[C@](C)(O)C2COc1ccc2ccc(=O)oc2c1 (some centres not stated),> 324,288,–
O=C1OC2(OC2c2ccccc2)c2ccccc21 (configuration not stated),> 200,> 200,–
Cc1ccc2c(c1)C(=O)C1(C2)Cc2c(C)cccc2C1=O (configuration not stated),> 200,> 200,–
COC(=O)CCCN(C)c1n[nH]c(N)n1,> 200,> 200,–
CCC(C)c1c(NC(C)=O)o[nH]c1=O (configuration not stated),> 200,> 200,–
CC(=O)C(=Cc1ccc(Cl)cc1)C(C)=O,> 427,19.5,–
COc1ccc2c(c1)C(=O)[C@@](Nc1ccc(C=O)cc1)(OC)[C@@](OC)(c1ccc([N+](=O)[O-])cc1)O2,> 200,85.1,–
O=C1c2ccccc2N2OC3C4CCC(C4)C3C12c1ccccc1 (configuration not stated),> 16.2,11.5,–
CC1(CN2CCCCC2)COC(c2ccccc2)(c2ccccc2)OC1,> 200,29.5,–
O=C1c2ccccc2C(=O)c2c(SSc3cccc4c3C(=O)c3ccccc3C4=O)cccc21,> 200,> 200,–
CCCCCCCCCCc1c2nc(c(CCCCCCCCCC)c3ccc([nH]3)c(CCCCCCCCCC)c3ccc([nH]3)c(CCCCCCCCCC)c3nc1C=C3)C=C2,> 100,> 100,–
CC1CC2C3CC(F)C4=CC(=O)C=CC4(C)C3(F)C(O)CC2(C)C1(O)C(=O)CO (configuration not stated),–,–,inactive
CCOC(=O)CC1=CSC2=NCCN12,–,–,inactive
O=C1NC(=O)/C(=C/c2ccc(S(=O)(=O)N/N=C/c3ccc(Cl)cc3)cc2)N1,> 200,123,–

SMILES,EC50 [µM],IC50 [µM],outcome
CNC(=O)OCc1c(COC(=O)NC)c2n(c1C)-c1ccc(OC)cc1CCC2,> 123,2.14,–
NC(Cc1ccccc1)c1nccs1 (configuration not stated),> 200,> 200,–
CC(=O)c1cccc(NC(=O)C(=O)Nn2c(N)nnc2N)c1,> 158,> 158,–
C[Si](C)(C)O/C=C1\CCCCC1=O,> 200,> 200,–
O=C(O)/C=C\C(=O)Nc1ccc(S(=O)(=O)c2ccc(NC(=O)/C=C\C(=O)O)cc2)cc1,> 562,> 562,–
COc1ccc2nc3ccc(OC)cc3c(SCC3CO3)c2c1 (configuration not stated),> 200,3.63,–
O=C(OCC1OC(c2nn[nH]n2)C(OC(=O)c2ccccc2)C1OC(=O)c1ccccc1)c1ccccc1 (configuration not stated),> 200,70.8,–
O=C1c2ccccc2C(=O)c2c1ccc1c3ccccc3n(Cc3ccccc3)c21,–,–,inactive
COC(=O)c1cc(=O)nc2n1C1OC(CO)C(O)C1O2 (configuration not stated),> 200,> 200,–
CN1OC(CO)CC12C1CC3CC(C1)CC2C3 (configuration not stated),> 1050,537,–
[N-]=[N+]=NC(=O)c1ccc(S(=O)(=O)c2ccc(F)cc2)cc1,–,–,inactive
Nc1ncc(CN2CCOCC2)c(-c2ccccc2O)n1,> 200,> 200,–
O=C1c2ccccc2-c2c1c1ccccc1c(=O)n2-c1ccccc1,> 30.9,> 30.9,–
COc1cc2c(c(OC)c1OC)-c1ccc(OC)c(=O)cc1C([N+](C)(C)C)CC2 (configuration not stated),> 200,11,–
N#Cc1cccc(N(C(=O)c2ccccc2)c2ccccc2)n1,> 200,112,–
O=C(CCCCCCCCC(=O)NCC1(c2ccccc2)CCN(Cc2ccccc2)CC1)NCC1(c2ccccc2)CCN(Cc2ccccc2)CC1,> 200,102,–
Nc1ccc(C2c3ccccc3Oc3ccccc32)cc1,> 200,30.9,–
Nc1nc2c(c(=O)[nH]1)CNC2=O,> 200,> 200,–
O=C1/C(=C/c2ccccc2)CCCc2ccccc21,> 200,21.4,–
N#Cc1c(-c2ccco2)cc(-c2ccc(N)cc2)[nH]c1=O,> 25.7,> 25.7,–
